Assay results from patent US9868746B2, “Substituted 5-aminothieno[2,3-C]pyridazine-6-carboxamide analogs as positive allosteric modulators of the muscarinic acetylcholine receptor M4” (Vanderbilt University, priority 2012, dated 2018).
Where two headings read alike, the source gives them in different places.

Biological target: T1, mAChR M4 (Homo sapiens, UniProt P08173)
T1 construct: expressed in transfected cells; host or cells: CHO-K1 cells stably transfected with M4 cDNA and chimeric G-protein Gqi5
T1 sequence (P08173 1-479): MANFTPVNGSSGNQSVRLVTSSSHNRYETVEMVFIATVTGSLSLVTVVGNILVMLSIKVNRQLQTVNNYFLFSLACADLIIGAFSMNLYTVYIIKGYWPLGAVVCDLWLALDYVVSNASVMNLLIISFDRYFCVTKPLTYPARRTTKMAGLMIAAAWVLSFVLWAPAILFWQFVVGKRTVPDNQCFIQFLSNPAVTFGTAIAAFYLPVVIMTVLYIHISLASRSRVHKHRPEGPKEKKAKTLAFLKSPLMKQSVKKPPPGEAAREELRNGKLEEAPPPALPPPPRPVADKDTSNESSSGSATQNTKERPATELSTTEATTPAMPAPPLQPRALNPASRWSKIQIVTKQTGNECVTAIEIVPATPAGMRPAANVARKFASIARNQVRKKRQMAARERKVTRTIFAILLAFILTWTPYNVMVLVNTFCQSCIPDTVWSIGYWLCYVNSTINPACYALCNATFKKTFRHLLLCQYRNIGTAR
Assay: mAChR M4 cell-based functional assay (calcium mobilization, potentiation of EC20 acetylcholine response)
Conditions: for Emax at 30 µM: % ACh maximum at 30 μM

[1] = mAChR M4 cell-based functional assay, >10,000 estimated for low potency compounds without plateau, read-out: EC50

SMILES | Emax at 30 µM | EC50 [1] | EC50 (EC50 (nM))
Cc1nnc2sc(C(=O)NCc3ccc(-c4ccsc4)cc3)c(N)c2c1C [Example B502] | 66% | 580 nM | –
Cc1nnc2sc(C(=O)NCc3ccc(S(=O)(=O)CF)cc3)c(N)c2c1C [Example B132] | 66% | 19 nM | –
Cc1nnc2sc(C(=O)NCc3ccc(-n4cncn4)cc3)c(N)c2c1C [Example B511] | 67% | 78 nM | –
Cc1ccccc1N1CCC(NC(=O)c2sc3nnc(C)c(C)c3c2N)C1 (stereo not drawn) [Example B269] | 68% | 110 nM | –
Cc1nnc2sc(C(=O)NC3CN(C(=O)Oc4ccc(C(F)(F)F)cc4)C3)c(N)c2c1C [Example B356] | 61% | 25 nM | –
Cc1nnc2sc(C(=O)N3CC(NS(C)(=O)=O)C3)c(N)c2c1C [Example B172] | 51% | > 10000 nM | –
Cc1nnc2sc(C(=O)NCc3nccs3)c(N)c2c1C [Example B11] | 82% | 1500 nM | –
Cc1nnc2sc(C(=O)NCc3ccc(-c4cccnc4F)cc3)c(N)c2c1C [Example B454] | 66% | 19 nM | –
Cc1nnc2sc(C(=O)NCc3ccc4c(c3)CN(C(C)C)C4=O)c(N)c2c1C [Example B407] | 61% | 220 nM | –
Cc1nnc2sc(C(=O)NC3CN(S(=O)(=O)c4cccc(Cl)c4F)C3)c(N)c2c1C [Example B139] | 65% | 54 nM | –
Cc1nnc2sc(C(=O)NCc3ccnc(C#N)c3)c(N)c2c1C [Example B467] | 69% | 1200 nM | –
CC(=O)N1CC2CN(C(=O)c3sc4nnc(C)c(C)c4c3N)CC2C1 (stereo not drawn) [Example B278] | 54% | > 10000 nM | –
COc1ccc(CNC(=O)c2sc3nnc(C)c(C)c3c2N)cc1Cl [Example B446] | 59% | 17 nM | –
Cc1nnc2sc(C(=O)N3CC(C)(F)C3)c(N)c2c1C [Example B302] | 73% | 860 nM | –
COC(=O)N1CC(NC(=O)c2sc3nnc(C)c(C)c3c2N)C1 [Example B153] | 83% | 230 nM | –
Cc1nnc2sc(C(=O)N3CC4CN(C(=O)C5CCC5)CC4C3)c(N)c2c1C (stereo not drawn) [Example B385] | 55% | 2600 nM | –
COCCOc1ccc(CNC(=O)c2sc3nnc(C)c(C)c3c2N)cc1 [Example B233] | 78% | 99 nM | –
Cc1nnc2sc(C(=O)NCc3ccc(S(=O)(=O)C(C)(F)F)cc3)c(N)c2c1C [Example B118] | 66% | 10 nM | –
Cc1nnc2sc(C(=O)N3CC(F)(CCC4OCCCO4)C3)c(N)c2c1C [Example B291] | 46% | > 10000 nM | –
Cc1ccc(S(=O)(=O)N2CCC(NC(=O)c3sc4nnc(C)c(C)c4c3N)C2)cc1 (stereo not drawn) [Example B244] | 79% | 580 nM | –
Cc1nnc2sc(C(=O)N3CC4CN(c5ccccn5)CC4C3)c(N)c2c1C (stereo not drawn) [Example B287] | 58% | 250 nM | –
Cc1nnc2sc(C(=O)NCc3ccc(Br)cn3)c(N)c2c1C [Example B471] | 60% | 390 nM | –
COC1(c2cccc(F)c2)CN(C(=O)c2sc3nnc(C)c(C)c3c2N)C1 [Example B299] | 35% | 350 nM | –
Cc1nnc2sc(C(=O)NC3CN(S(=O)(=O)CC(F)(F)F)C3)c(N)c2c1C [Example B119] | 68% | 82 nM | –
Cc1nnc2sc(C(=O)NCc3ccc4[nH]ccc4c3)c(N)c2c1C [Example B195] | 62% | 65 nM | –
Cc1nnc2sc(C(=O)NC3CN(C(=O)C4CCCCC4)C3)c(N)c2c1C [Example B123] | 97% | 130 nM | –
Cc1nnc2sc(C(=O)N3CC4CN(C5CCCC5)CC4C3)c(N)c2c1C (stereo not drawn) [Example B286] | 19% | 4800 nM | –

SMILES | Emax at 30 µM | EC50 [1] | EC50 (EC50 (nM))
Cc1nnc2sc(C(=O)NC3CN(C(=O)c4cccc(F)c4)C3)c(N)c2c1C [Example B403] | 71% | 110 nM | –
Cc1nnc2sc(C(=O)NCc3ccc(-c4cncc(F)c4)cc3)c(N)c2c1C [Example B487] | 71% | 37 nM | –
Cc1nnc2sc(C(=O)NC3CN(C(=O)c4ccc(F)c(F)c4)C3)c(N)c2c1C [Example B131] | 76% | 150 nM | –
COc1ccc(C(=O)N2CC(NC(=O)c3sc4nnc(C)c(C)c4c3N)C2)cc1 [Example B400] | 63% | 52 nM | –
CCCOC(=O)NC(CCl)CNC(=O)c1sc2nnc(C)c(C)c2c1N (stereo not drawn) [Example B165] | 32% | > 10000 nM | –
Cc1nnc2sc(C(=O)NCc3ccc(CN4CCSCC4)cc3)c(N)c2c1C [Example B493] | 68% | 82 nM | –
Cc1nnc2sc(C(=O)NCc3ccc(-c4ccc5c(c4)OCO5)cc3)c(N)c2c1C [Example B501] | 44% | 990 nM | –
CCCCOc1ccc(C(=O)N2CCC(NC(=O)c3sc4nnc(C)c(C)c4c3N)C2)cc1 (stereo not drawn) [Example B212] | 76% | 870 nM | –
Cc1nnc2sc(C(=O)N3CC(F)(c4cccc(-c5cncnc5)c4)C3)c(N)c2c1C [Example B317] | 47% | 290 nM | –
COc1ccc(CNC(=O)c2sc3nnc(C)c(C)c3c2N)cc1 [Example B16] | 99% | 250 nM | –
COc1ccc(NC(=O)N2CC(NC(=O)c3sc4nnc(C)c(C)c4c3N)C2)cc1 [Example B371] | 61% | 48 nM | –
Cc1nnc2sc(C(=O)NC3CN(C(=O)c4ccccn4)C3)c(N)c2c1C [Example B126] | 92% | 290 nM | –
Cc1nnc2sc(C(=O)NCc3ccc(CN4CCOCC4)cc3)c(N)c2c1C [Example B441] | 79% | 80 nM | –
CC(=O)NC1CN(C(=O)c2sc3nnc(C)c(C)c3c2N)C1 [Example B157] | 32% | > 10000 nM | –
Cc1nnc2sc(C(=O)N3CC4CN(C(=O)CC5CCCCC5)CC4C3)c(N)c2c1C (stereo not drawn) [Example B386] | 44% | 820 nM | –
Cc1nnc2sc(C(=O)NC3CCN(C(=O)Oc4ccccc4)C3)c(N)c2c1C (stereo not drawn) [Example B203] | 74% | 100 nM | –
Cc1nnc2sc(C(=O)N3CC(F)(c4ccc(S(=O)(=O)C(F)F)cc4)C3)c(N)c2c1C [Example B377] | 50% | 72 nM | –
Cc1nnc2sc(C(=O)NCc3ccc(C(F)(F)F)nc3)c(N)c2c1C [Example B443] | 69% | 120 nM | –
Cc1nnc2sc(C(=O)NCc3ccnc(F)c3)c(N)c2c1C [Example B452] | 59% | 240 nM | –
Cc1nnc2sc(C(=O)N3CCC(NC(=O)c4ccccn4)C3)c(N)c2c1C (stereo not drawn) [Example B240] | 53% | > 10000 nM | –
Cc1nnc2sc(C(=O)NCc3ccc(OC(F)F)cn3)c(N)c2c1C [Example B480] | 74% | > 10000 nM | –
CSc1ccc(CNC(=O)c2sc3nnc(C)c(C)c3c2N)cc1 [Example B26] | 76% | – | 11 nM
Cc1nnc2sc(C(=O)N3CC(NC(=O)c4ccncc4)C3)c(N)c2c1C [Example B184] | 48% | 1900 nM | –
Cc1nnc2sc(C(=O)NCc3ccc(-c4cnn(C)c4)cc3)c(N)c2c1C [Example B447] | 64% | > 10000 nM | –
Cc1nnc2sc(C(=O)NCc3ccc(S(C)(=O)=O)c(F)c3)c(N)c2c1C [Example B33] | 73% | 37 nM | –
Cc1nnc2sc(C(=O)NC3CCN(C(=O)CCc4ccccc4)C3)c(N)c2c1C (stereo not drawn) [Example B221] | 72% | 1300 nM | –
Cc1nnc2sc(C(=O)NCc3ccc(OCF)cc3)c(N)c2c1C [Example B411] | 82% | 53 nM | –
